Here are results for 14 compounds from ChEMBL document CHEMBL1743341, “Cytochrome p450 enzymes mechanism based inhibitors: common sub-structures and reactivity” (Curr Drug Metab, 2005).

Each structure is given as a SMILES string.

Common to all, as to type: ADME
One data set concerns the target T1, CYP2A6 (Homo sapiens, UniProt P11509).
T1 sequence (P11509 whole entry): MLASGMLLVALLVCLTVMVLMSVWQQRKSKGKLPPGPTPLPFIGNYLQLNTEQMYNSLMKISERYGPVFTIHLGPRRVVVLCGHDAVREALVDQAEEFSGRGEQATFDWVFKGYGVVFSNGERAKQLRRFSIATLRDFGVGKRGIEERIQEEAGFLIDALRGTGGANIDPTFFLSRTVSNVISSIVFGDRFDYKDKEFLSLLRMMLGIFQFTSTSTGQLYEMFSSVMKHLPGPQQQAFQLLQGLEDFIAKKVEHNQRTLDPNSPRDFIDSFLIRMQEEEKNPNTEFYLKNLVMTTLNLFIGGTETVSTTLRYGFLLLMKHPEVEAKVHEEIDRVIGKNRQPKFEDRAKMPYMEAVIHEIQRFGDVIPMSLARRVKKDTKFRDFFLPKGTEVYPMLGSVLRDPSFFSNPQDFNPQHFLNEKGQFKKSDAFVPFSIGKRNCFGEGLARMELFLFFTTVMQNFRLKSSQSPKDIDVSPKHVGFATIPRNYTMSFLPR
Briefly: (§1) Mechanism based inhibition of human cytochrome P450 2A6 measured by coumarin 7-hydroxylation. The following applies: human, probe coumarin (7-hydroxylation).

In another data set the target is T2, Cytochrome P450 2A6 (Homo sapiens, UniProt P11509).
T2 sequence (P11509 whole entry): T1 sequence (P11509 whole entry)
Described as §1.

Data set [1] deals with T3, CYP3A4 (Homo sapiens, UniProt P08684). Briefly: (§2) Mechanism based inhibition of human cytochrome P450 3A4 measured by testosterone 6-beta hydroxylation. The following applies: human, probe testosterone (6-beta hydroxylation).
T3 sequence (P08684 whole entry): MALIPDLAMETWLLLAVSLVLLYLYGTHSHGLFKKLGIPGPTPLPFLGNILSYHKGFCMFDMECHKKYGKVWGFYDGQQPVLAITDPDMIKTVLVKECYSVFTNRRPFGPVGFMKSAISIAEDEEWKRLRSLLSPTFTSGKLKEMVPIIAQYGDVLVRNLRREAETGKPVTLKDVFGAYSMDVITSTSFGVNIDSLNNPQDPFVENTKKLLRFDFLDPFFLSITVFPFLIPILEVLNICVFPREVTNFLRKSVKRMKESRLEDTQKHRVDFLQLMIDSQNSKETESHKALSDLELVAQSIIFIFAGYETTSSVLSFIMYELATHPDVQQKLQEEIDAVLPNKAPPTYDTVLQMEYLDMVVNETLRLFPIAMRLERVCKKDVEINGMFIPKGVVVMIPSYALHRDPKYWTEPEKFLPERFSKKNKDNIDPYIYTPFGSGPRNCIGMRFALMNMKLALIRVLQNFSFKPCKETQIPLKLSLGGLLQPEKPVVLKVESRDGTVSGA
Data set [2] addresses T4, Cytochrome P450 3A4 (Homo sapiens, UniProt P08684). Described as §2.
Data set [3] addresses T5, Cytochrome P450 1A1 (Homo sapiens, UniProt P04798).
T5 sequence (P04798 whole entry): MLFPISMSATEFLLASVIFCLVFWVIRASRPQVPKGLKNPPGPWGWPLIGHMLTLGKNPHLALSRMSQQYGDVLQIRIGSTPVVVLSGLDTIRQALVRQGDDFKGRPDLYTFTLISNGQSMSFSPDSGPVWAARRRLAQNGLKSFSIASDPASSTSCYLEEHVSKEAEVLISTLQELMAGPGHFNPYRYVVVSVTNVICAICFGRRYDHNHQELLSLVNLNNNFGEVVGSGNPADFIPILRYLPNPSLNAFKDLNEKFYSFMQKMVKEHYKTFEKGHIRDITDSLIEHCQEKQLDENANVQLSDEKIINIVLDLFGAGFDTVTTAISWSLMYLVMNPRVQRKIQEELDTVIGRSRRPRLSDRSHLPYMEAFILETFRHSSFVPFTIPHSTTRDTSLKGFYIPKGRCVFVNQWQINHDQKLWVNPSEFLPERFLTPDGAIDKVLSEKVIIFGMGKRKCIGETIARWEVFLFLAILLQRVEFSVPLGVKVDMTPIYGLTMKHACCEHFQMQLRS
Briefly: Mechanism based inhibition of human cytochrome P450 1A1 measured by 7-ethoxyresorufin O-deethylation (EROD).

The target of data set [4] is T6, Cytochrome P450 1A2 (Homo sapiens, UniProt P05177).
T6 sequence (P05177 whole entry): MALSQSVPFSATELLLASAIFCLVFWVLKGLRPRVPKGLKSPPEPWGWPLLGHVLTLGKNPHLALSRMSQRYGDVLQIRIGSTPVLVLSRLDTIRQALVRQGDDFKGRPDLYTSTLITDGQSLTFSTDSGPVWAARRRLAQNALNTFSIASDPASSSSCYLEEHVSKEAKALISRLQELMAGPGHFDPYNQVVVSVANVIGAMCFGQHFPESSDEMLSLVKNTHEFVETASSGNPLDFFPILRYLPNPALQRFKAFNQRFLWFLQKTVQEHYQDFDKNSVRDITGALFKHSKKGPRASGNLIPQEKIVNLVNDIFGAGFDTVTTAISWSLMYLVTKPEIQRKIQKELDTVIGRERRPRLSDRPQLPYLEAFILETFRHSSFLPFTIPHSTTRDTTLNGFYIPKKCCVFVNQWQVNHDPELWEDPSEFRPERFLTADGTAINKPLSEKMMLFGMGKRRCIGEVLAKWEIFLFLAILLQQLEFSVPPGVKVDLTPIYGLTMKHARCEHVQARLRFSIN
Put plainly: Mechanism based inhibition of human cytochrome P450 1A2 measured by 7-ethoxyresorufin O-deethylation (EROD).

The target in data set [5] is T7, Cytochrome P450 1A1 (Rattus norvegicus, UniProt P00185).
T7 sequence (P00185 whole entry): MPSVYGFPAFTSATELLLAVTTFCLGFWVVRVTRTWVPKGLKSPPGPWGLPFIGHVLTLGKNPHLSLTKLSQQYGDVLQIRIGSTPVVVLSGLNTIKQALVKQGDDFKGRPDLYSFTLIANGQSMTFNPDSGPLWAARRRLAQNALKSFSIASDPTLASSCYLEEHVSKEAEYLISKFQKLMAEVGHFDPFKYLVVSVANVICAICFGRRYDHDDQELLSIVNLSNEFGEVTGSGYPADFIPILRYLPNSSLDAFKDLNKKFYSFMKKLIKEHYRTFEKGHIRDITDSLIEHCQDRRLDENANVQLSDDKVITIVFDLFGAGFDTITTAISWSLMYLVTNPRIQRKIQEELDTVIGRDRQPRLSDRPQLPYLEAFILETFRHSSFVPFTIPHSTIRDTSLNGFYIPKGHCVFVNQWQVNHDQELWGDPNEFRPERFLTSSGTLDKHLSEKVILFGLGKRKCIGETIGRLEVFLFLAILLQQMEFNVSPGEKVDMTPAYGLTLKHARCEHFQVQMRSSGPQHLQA
Put plainly: (§3) Mechanism based inhibition of rat cytochrome P450 CYP1A1 measured by 7-ethoxyresorufin O-deethylation (EROD).

Another data set deals with T8, CYP1A1 (Rattus norvegicus, UniProt P00185).
T8 sequence (P00185 whole entry): T7 sequence (P00185 whole entry)
The data set is described as §3. The note with it: rat, probe 7-ethoxyresorufin (O-deethylation, EROD).

Data set [6] has as its target T9, Cytochrome P450 1A2 (Rattus norvegicus, UniProt P04799).
T9 sequence (P04799 whole entry): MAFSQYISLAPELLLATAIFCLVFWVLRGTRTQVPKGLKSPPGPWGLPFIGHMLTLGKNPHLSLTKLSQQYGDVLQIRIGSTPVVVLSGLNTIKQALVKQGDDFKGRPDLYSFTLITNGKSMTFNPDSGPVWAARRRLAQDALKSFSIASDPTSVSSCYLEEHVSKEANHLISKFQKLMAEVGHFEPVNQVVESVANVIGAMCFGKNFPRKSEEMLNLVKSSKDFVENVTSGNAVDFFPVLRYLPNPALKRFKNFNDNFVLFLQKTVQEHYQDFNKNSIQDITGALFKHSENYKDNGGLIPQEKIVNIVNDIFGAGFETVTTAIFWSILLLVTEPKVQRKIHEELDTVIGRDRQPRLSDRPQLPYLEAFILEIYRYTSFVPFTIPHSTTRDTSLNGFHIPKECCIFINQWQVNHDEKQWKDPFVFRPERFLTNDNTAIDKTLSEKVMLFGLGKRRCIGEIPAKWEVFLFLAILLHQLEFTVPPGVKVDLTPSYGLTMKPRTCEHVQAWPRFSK
Briefly: (§4) Mechanism based inhibition of rat cytochrome P450 CYP1A2 measured by 7-methoxyresorufin O-demethylation (MROD).

The target in a further data set is T10, CYP1A2 (Rattus norvegicus, UniProt P04799).
T10 sequence (P04799 whole entry): T9 sequence (P04799 whole entry)
The data set is described as §4. The note with it: rat, probe 7-methoxyresorufin (O-demethylation, MROD).

Data set [7] deals with T3, CYP3A4. Briefly: (§5) Mechanism based inhibition of human cytochrome P450 3A4 measured by (14C)formaldehyde production from (N-methyl-14C)-erythromycin. The following applies: human, probe (N-methyl-14C)-erythromycin.
The target of data set [8] is T4, Cytochrome P450 3A4. Described as §5.

T4 sequence (P08684 whole entry): as the sequence (P08684 whole entry) above

A word on the kinact: it is the maximal first-order rate at which the target is inactivated. `COc1c2c(cc3ccc(=O)oc13)CCO2`: the kinact at CYP2A6 is 0.00233 s⁻¹. This compound also displayed a Ki at Cytochrome P450 2A6 of 27000 nM.
Regarding `CNCCCC(C#N)(c1ccc(OC)c(OC)c1)C(C)C` (stereo unspecified), at CYP3A4 [1], the maximal inactivation rate constant (kinact) is 0.00117 s⁻¹. Further, the Ki on Cytochrome P450 3A4 [2] was 7930 nM.
In the case of `Cc1cc(C)c(SCC[n+]2noc([O-])c2C)c(C)c1`, the mechanism based inhibition entry on Cytochrome P450 1A1 [3], on Cytochrome P450 3A4 [2] and on Cytochrome P450 1A2 [4] was “Cytochrome P450 mechanistic inhibitor: PMID 9107543” throughout.
Take `CC(C)CN(C[C@@H](O)[C@H](Cc1ccccc1)NC(=O)[C@@H](NC(=O)CNCc1cccc(F)c1)C(C)(C)C)S(=O)(=O)c1cccc(N)c1`: the kinact on CYP3A4 [1] is 0.00367 s⁻¹. The Ki on Cytochrome P450 3A4 [2] turned out to be 240 nM.
On Cytochrome P450 1A1 [5], `C#Cc1ccc(NC(C)=O)cc1` returned a Ki of 8600 nM. For the same compound, on CYP1A1, the kinact is 0.0015 s⁻¹.
On the same counts, the results for `CC#CCCCc1ccccc1` are 540 nM and 0.00833 s⁻¹.
On to `CC#Cc1ccc2ccccc2c1`, for which the mechanism based inhibition entry at Cytochrome P450 1A1 [5] (rat) is on record as “Cytochrome P450 mechanistic inhibitor: PMID 9074808”.
On to `C#Cc1ccc2c(ccc3ccccc32)c1`, for which, on Cytochrome P450 1A1 [5], the Ki stood at 250 nM. Further, the kinact on CYP1A1 is 0.0133 s⁻¹.
On the same counts, the results for `C#Cc1ccc2ccc3ccccc3c2c1` are 90 nM and 0.00167 s⁻¹.
For `C#Cc1ccc2ccc3cccc4ccc1c2c34` the same measures were 20 nM and 0.00117 s⁻¹.
For `C#Cc1cc2cccc3ccc4cccc1c4c32`, the Ki is 1200 nM on Cytochrome P450 1A2 [6] and 10 nM on Cytochrome P450 1A1 [5]. Besides, the results for the maximal inactivation rate constant (kinact) on CYP1A2 and on CYP1A1 were 0.005 s⁻¹ and 0.00117 s⁻¹, respectively.
Regarding `CCC[C@@H](NC(=O)N1C(=O)C(CC)(CC)[C@@H]1Oc1ccc(C(=O)N2CCN(C)CC2)cc1)c1ccc2c(c1)OCO2`, the mechanism based inhibition entry at Cytochrome P450 3A4 [2] is given as “Cytochrome P450 mechanistic inhibitor”.
Take `C#Cc1ccc(-c2ccccc2)cc1`: the Ki came to 870 nM on Cytochrome P450 1A2 [6] and 270 nM on Cytochrome P450 1A1 [5]. Further, the maximal inactivation rate constant (kinact) on CYP1A2 is 0.00167 s⁻¹; at CYP1A1 it was 0.001 s⁻¹.
Take `COc1cc(C[C@@H](CO)[C@H](CO)Cc2ccc3c(c2)OCO3)cc(OC)c1OC`: the inactivation rate constant (kinact) at CYP3A4 [7] was 0.00517 s⁻¹. The compound further yielded a Ki at Cytochrome P450 3A4 [8] of 54 nM.
